How the values were obtained:
Nitric oxide synthase 3 = molecular target: T1, Nitric oxide synthase 3 (Homo sapiens, UniProt P29474); assay: Inhibition of human eNOS expressed in Escherichia coli using human oxyhemoglobin by hemoglobin (Hb) NO capture assay
T1 sequence (P29474 whole entry): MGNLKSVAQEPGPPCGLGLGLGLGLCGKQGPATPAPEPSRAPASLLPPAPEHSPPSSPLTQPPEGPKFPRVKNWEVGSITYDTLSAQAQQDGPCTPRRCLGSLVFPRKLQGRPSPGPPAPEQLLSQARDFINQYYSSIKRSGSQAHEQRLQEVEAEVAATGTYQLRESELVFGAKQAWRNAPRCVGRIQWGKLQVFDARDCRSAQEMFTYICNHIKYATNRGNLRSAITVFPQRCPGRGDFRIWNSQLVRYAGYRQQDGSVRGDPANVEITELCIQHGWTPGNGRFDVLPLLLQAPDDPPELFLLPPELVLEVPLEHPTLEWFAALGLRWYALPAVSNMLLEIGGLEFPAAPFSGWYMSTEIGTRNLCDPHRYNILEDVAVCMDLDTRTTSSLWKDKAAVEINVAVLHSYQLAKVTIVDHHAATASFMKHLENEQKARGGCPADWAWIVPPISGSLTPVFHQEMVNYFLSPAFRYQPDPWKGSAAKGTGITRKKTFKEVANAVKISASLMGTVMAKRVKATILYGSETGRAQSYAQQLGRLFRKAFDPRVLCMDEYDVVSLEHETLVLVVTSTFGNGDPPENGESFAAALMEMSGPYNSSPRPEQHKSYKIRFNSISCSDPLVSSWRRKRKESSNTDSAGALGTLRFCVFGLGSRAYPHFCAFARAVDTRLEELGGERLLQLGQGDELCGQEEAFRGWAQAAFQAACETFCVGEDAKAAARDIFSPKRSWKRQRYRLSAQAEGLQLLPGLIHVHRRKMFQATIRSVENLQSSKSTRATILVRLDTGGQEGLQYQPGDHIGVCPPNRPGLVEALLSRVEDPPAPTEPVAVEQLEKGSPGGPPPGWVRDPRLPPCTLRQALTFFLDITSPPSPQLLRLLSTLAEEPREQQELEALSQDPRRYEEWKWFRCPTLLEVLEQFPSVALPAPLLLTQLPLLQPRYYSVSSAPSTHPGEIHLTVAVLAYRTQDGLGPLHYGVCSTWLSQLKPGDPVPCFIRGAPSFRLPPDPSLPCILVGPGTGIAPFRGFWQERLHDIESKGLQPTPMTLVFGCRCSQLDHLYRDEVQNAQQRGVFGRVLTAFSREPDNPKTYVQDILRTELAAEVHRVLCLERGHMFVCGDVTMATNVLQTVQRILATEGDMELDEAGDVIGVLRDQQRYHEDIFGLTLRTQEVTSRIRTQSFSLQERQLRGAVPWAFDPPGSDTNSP

[1] = molecular target: Nitric oxide synthase, inducible (Homo sapiens, UniProt P35228)
Sequence of Nitric oxide synthase, inducible (P35228 whole entry): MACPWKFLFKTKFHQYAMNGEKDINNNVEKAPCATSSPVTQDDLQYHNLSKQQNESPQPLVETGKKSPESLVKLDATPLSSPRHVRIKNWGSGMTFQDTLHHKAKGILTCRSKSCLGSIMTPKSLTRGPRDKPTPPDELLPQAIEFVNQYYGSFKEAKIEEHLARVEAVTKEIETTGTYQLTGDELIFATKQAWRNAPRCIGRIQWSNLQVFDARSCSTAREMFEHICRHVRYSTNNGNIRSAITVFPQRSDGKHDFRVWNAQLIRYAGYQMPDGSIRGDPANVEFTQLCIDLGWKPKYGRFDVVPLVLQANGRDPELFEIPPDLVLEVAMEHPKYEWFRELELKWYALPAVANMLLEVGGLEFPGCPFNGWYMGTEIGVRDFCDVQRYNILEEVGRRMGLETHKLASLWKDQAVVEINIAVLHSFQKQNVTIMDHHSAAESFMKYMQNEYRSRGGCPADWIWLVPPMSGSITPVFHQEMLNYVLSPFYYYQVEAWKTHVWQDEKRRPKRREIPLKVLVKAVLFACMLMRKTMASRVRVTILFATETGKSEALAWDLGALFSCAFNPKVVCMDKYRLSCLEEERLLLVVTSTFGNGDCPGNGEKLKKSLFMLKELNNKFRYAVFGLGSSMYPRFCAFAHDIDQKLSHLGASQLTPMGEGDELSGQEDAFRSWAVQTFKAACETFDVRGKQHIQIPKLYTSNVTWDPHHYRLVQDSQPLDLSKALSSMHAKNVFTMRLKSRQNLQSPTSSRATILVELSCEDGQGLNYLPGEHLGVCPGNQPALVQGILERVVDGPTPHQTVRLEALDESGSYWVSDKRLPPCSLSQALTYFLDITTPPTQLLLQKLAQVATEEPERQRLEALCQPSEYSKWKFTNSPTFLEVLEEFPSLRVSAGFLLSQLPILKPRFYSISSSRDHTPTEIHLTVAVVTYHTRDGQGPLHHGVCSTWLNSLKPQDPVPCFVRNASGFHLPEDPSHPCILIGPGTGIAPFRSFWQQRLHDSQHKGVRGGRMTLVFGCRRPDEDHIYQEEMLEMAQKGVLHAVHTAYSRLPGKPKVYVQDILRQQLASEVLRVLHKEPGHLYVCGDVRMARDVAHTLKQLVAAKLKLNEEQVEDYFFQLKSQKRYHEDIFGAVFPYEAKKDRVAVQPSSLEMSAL
Description: Inhibition of human iNOS expressed in Escherichia coli using human oxyhemoglobin by hemoglobin (Hb) NO capture assay

Nitric oxide synthase 1 [2] = molecular target: Nitric oxide synthase 1 (Rattus norvegicus, UniProt P29476)
Sequence of Nitric oxide synthase 1 (Rattus norvegicus, UniProt P29476) (P29476 whole entry): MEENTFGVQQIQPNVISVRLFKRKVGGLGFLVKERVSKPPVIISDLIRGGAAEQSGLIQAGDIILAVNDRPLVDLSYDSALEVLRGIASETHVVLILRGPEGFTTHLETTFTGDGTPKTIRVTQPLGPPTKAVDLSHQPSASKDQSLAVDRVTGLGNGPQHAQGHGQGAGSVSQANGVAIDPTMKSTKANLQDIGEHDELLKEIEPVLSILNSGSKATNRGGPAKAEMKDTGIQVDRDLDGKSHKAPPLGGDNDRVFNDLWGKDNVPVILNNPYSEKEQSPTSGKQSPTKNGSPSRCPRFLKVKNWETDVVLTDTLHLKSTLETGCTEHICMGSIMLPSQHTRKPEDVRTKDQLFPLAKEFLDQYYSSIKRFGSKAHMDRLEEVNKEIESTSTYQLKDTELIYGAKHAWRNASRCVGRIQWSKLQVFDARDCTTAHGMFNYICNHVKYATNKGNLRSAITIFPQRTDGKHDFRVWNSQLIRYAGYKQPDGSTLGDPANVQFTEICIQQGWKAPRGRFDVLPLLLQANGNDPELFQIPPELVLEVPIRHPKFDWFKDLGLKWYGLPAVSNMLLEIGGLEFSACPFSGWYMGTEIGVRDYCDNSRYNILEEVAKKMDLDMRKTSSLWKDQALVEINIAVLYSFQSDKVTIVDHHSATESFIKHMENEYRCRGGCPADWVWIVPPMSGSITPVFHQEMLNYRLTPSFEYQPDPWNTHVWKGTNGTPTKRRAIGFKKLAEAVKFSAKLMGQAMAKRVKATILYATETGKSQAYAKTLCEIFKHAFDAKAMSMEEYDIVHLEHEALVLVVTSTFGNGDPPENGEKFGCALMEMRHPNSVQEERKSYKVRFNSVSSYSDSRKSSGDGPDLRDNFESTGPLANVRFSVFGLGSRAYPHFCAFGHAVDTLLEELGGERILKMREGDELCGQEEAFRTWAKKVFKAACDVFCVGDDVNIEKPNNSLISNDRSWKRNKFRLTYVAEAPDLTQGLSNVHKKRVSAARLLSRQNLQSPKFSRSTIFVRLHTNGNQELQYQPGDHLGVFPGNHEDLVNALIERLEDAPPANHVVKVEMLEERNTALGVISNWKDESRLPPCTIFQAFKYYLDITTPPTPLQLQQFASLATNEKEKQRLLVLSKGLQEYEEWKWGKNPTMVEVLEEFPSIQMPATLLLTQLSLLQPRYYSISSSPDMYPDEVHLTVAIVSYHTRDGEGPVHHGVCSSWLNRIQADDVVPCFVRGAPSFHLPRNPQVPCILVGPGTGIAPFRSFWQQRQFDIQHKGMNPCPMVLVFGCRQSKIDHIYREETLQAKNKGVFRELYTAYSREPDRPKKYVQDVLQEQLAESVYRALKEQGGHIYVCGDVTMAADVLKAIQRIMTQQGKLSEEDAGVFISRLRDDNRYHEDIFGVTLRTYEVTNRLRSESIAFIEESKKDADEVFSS
Description: Inhibition of rat nNOS expressed in Escherichia coli using human oxyhemoglobin by hemoglobin (Hb) NO capture assay

Nitric oxide synthase 1 [3] = molecular target: Nitric oxide synthase 1 (Homo sapiens, UniProt P29475)
Sequence of Nitric oxide synthase 1 (Homo sapiens, UniProt P29475) (P29475 whole entry): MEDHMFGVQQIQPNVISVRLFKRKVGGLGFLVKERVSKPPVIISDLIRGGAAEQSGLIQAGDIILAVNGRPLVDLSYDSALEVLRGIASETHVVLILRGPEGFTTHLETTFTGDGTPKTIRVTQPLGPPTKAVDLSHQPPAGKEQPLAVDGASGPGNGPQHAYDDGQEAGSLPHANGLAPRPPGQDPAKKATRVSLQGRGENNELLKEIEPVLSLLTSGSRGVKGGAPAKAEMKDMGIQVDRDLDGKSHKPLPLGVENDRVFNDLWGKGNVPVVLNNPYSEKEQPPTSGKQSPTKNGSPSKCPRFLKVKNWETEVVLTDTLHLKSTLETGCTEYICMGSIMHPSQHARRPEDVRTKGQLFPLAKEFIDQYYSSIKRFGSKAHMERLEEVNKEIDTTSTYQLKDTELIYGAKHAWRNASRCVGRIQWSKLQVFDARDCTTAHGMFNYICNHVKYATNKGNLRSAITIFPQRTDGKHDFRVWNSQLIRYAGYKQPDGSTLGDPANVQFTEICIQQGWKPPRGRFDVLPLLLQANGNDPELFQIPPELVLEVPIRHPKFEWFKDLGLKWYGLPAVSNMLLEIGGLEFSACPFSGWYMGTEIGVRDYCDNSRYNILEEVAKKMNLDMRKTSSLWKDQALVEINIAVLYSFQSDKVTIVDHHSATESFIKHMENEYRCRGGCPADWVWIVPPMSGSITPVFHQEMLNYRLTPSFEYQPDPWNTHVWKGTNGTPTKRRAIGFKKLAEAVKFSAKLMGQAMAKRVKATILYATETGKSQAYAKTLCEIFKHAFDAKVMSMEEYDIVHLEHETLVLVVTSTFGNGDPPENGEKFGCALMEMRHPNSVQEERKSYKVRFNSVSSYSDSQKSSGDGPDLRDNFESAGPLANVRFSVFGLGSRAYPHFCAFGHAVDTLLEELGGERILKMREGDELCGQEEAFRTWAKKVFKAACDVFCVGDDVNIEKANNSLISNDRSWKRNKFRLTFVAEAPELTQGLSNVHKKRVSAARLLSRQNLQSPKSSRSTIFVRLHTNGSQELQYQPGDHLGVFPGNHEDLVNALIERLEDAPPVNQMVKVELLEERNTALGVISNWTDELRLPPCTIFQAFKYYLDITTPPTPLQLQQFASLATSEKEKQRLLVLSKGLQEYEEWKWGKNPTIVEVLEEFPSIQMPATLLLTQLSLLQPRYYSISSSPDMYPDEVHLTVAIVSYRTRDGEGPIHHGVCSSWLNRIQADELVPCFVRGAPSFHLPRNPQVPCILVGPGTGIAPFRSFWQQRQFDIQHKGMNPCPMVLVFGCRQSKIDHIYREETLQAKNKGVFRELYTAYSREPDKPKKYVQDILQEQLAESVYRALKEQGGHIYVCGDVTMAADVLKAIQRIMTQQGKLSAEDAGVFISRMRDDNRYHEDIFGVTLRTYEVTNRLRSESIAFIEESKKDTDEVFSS
Description: Inhibition of human nNOS expressed in Escherichia coli using human oxyhemoglobin by hemoglobin (Hb) NO capture assay

[4] = mouse, microsomes
[5] = human, microsomes

| Compound | Ki (Nitric oxide synthase 3) [µM] | Ki [1] [µM] | Ki (Nitric oxide synthase 1 [2]) [µM] | Ki (Nitric oxide synthase 1 [3]) [µM] | t1/2 [4] [min] | t1/2 [5] [min] |
| --- | --- | --- | --- | --- | --- | --- |
| CN(C)CCc1cc(F)c(F)c(CCc2cc(C(F)(F)F)cc(N)n2)c1.Cl.Cl | 68.3 | – | – | – | – | – |
| Cc1cc(N)nc(CCc2cc(CCN)cc(F)c2F)c1.Cl.Cl | 77.2 | 1.72 | – | – | – | – |
| Cc1cc(N)nc(CCc2cc(CCN3CCN(C)CC3)cc(F)c2F)c1 | 12.4 | – | – | – | – | – |
| CN(C)CCc1cc(F)c(F)c(CCc2cccc(N)n2)c1 | 61.4 | – | 1.11 | 1.64 | – | – |
| CCN(CC)CCc1cc(F)c(F)c(CCc2cc(C)cc(N)n2)c1.Cl.Cl | 46.4 | – | – | – | – | – |
| Cc1cc(N)nc(/C=C/c2cc(CCN(C)C)cc(F)c2F)c1 | 14.3 | 11.9 | – | 0.048 | – | – |
| Cc1cc(N)nc(CCc2cc(CC[C@H]3CCN3C)cc(F)c2F)c1.Cl.Cl | – | – | – | – | 16 | > 60 |
| Cc1cc(N)nc(C#Cc2cc(CCN(C)C)cc(F)c2F)c1 | 18.7 | 48.8 | – | 0.328 | – | – |
| Cc1cc(N)nc(CCc2cc(CCN(C)C)cc(F)c2F)c1.Cl.Cl | – | – | – | – | 29 | > 60 |
| Cc1cc(N)nc(C#Cc2cc(CN(C)C)cc(F)c2F)c1.Cl.Cl | 7.68 | 88.7 | – | 0.319 | – | – |
